In the assay the target is T1, 6-phosphogluconate dehydrogenase (6-PGD) (Homo sapiens, UniProt P52209).
T1 construct: native enzyme purified from human erythrocytes
T1 sequence (P52209 1-483): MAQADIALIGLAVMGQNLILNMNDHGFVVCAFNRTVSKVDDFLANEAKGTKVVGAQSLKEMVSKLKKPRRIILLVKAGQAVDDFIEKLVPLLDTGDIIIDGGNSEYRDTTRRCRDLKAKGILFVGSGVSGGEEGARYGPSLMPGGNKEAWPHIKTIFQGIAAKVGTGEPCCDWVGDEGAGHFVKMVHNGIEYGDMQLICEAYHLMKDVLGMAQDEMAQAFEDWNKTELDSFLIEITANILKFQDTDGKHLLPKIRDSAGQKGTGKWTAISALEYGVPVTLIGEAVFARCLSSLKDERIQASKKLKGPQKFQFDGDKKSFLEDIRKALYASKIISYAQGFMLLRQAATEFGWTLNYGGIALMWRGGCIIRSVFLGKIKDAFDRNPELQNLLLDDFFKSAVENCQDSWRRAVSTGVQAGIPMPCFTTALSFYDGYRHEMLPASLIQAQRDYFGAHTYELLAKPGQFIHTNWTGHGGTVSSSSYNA
As to the kind of experiment: enzyme activity assay (NADPH absorbance at […] nm) on 6-PGD purified from human erythrocytes; also A549 lysate assay. It counts as biochemical. The following applies: read-out: % reduction of activity at 200 μg/mL.

As for `COc1cc([C@H]2Oc3c(OC)cc4ccc(=O)oc4c3O[C@@H]2CO)ccc1O` [cleomiscosin A], the inhibition at 200 µg/mL came to 70%.

With `COc1cc([C@H]2OC[C@H]3[C@@H]2CO[C@@H]3c2cc(OC)c(O)c(OC)c2)cc(OC)c1O` [syringaresinol], the inhibition at 200 µg/mL is 76.3%.

The values above are taken from PMC9864769, “Identification of Lignan Compounds as New 6-Phosphogluconate Dehydrogenase Inhibitors for Lung Cancer” (Metabolites, 2022).
